# Measured values taken from PMC5109050, “Structure and Function of Cyanobacterial DHDPS and DHDPR” (Scientific Reports, 2016).
# Tests used:
# Av-DHDPR = molecular target: T1, Av-DHDPR (Trichormus variabilis, UniProt Q3MFY8); assay: microscale thermophoresis, label-free, single-site fit; type: binding
# T1 construct: gene dapB; synthetic codon-optimised dapB in pRSET-A, His-tagged, E. coli BL21-DE3 pLysS, IMAC; homotetramer 139 kDa; monomer of 287 residues in crystal
# T1 sequence (Q3MFY8 2-278): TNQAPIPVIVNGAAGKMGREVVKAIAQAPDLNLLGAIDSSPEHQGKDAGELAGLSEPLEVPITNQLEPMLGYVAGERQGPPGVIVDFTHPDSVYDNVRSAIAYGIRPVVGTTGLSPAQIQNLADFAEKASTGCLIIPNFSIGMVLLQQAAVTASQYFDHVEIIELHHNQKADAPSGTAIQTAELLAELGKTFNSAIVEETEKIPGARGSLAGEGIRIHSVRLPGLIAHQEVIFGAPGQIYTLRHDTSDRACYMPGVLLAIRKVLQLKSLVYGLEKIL
# Av-DHDPS [1] = molecular target: T2, Av-DHDPS (Trichormus variabilis, UniProt Q3M723); assay: DHDPS-DHDPR coupled assay, dose response, four-parameter logistic; type: biochemical
# T2 construct: gene dapA; synthetic codon-optimised dapA in pRSET-A, His-tagged, E. coli BL21-DE3 pLysS, IMAC; homotetramer 147 kDa; monomer of 297 residues in crystal; active-site Lys164
# Text: DHDPS-DHDPR coupled assay, dose response, four-parameter logistic on Av-DHDPS
# Vv-DHDPS = molecular target: T3, Vv-DHDPS (Vitis vinifera, UniProt D7U7T8); assay: as above; type: biochemical; details: 30 °C; allosteric feedback inhibitor; control enzyme
# T3 construct: gene VIT_15s0048g00750; control enzyme; construct not described here
# T3 sequence (D7U7T8 40-365 limits assumed): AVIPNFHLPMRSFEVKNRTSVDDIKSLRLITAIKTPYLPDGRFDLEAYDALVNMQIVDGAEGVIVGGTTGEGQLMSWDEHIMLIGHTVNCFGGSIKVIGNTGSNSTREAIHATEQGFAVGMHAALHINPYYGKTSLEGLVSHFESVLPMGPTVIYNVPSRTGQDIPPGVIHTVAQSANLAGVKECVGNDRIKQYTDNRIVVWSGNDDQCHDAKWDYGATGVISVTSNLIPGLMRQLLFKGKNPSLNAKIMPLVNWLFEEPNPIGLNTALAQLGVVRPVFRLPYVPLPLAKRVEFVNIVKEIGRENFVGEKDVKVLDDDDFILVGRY
# Ec-DHDPS = molecular target: T4, Ec-DHDPS (Escherichia coli, UniProt P0A6L2); assay: as above; type: biochemical
# T4 construct: gene dapA; control enzyme; construct not described here
# T4 sequence (P0A6L2 1-292): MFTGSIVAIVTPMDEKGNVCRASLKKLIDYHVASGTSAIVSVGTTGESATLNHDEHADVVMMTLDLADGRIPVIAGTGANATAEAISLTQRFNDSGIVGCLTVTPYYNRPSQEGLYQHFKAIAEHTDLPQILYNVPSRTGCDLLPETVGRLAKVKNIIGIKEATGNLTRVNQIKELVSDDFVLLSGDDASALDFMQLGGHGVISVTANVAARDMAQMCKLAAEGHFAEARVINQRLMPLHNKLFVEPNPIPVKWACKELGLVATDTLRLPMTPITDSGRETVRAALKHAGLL
# Av-DHDPS [2] = molecular target: T2, Av-DHDPS; assay: X-ray crystallography, […] Å; type: binding; details: covalent; bound to Lys164 in active site; crystallised with 10 mM pyruvate, pH 6.5
# [3] = molecular target: dihydrodipicolinate reductase from Anabaena variabilis (Anabaena variabilis) (UniProt N8WZH2); assay: AUC; sedimentation velocity, 20 °C, 40,000 rpm, absorbance at 230 nm, initial concentrations 0.1-7.0 μM (size-distribution analysis at 4.0 μM); single species, tetramer
# [4] = molecular target: dihydrodipicolinate synthase from Anabaena variabilis (Anabaena variabilis) (UniProt N8VIX7); assay: as above
# T2 sequence (Q3M723 entry or part of it): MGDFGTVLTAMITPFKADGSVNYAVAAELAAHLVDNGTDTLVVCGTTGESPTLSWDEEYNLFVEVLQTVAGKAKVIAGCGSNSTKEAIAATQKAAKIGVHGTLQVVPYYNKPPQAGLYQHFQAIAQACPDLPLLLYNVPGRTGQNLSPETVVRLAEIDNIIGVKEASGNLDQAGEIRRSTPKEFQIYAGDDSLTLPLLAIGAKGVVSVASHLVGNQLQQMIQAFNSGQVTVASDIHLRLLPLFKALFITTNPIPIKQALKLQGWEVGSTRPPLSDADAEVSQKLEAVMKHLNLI
molecule,measurement,setting,value
"O=C(O)c1cccc(C(=O)O)n1 [2,6-pyridinedicarboxylate]",Kd,Av-DHDPR,100 ± 8.2 µM
NCCCC[C@H](N)C(=O)O [(S)-lysine],IC50,Av-DHDPS [1],68 µM
same,IC50,Vv-DHDPS,30 µM
same,IC50,Ec-DHDPS,210 µM
CC(=O)C(=O)O [pyruvate],"X-ray crystallography, 1.92 Å",Av-DHDPS [2],Shown in purple is the substrate pyruvate bonded to Lys164 in Av-DHDPS.
dihydrodipicolinate reductase from Anabaena variabilis (from UniProt N8WZH2 1-273) (enzyme),stoichiometry N,[3],4
dihydrodipicolinate synthase from Anabaena variabilis (from UniProt N8VIX7 1-299) (enzyme),stoichiometry N,[4],4
